From patent publication US12662461B2, “Tricyclic compound and pharmaceutical use thereof” (JD BIOSCIENCE INC., priority 2019, dated 2026)
Structures can show the parent of a compound that is named as a salt.

Molecular target: serotonin 2A (5-HT2A) receptor (Homo sapiens, UniProt P28223)
Assay: Measurement of inhibitory activity against serotonin 2A receptor (in vitro)
Type: biochemical
Conditions: inhibitory activity against serotonin 2A (5-HT2A) receptor
Text: Experimental Example: Measurement of Inhibitory Activity Against Serotonin 2A Receptor

serotonin 2A (5-HT2A) receptor, sequence (P28223 whole entry, species assumed): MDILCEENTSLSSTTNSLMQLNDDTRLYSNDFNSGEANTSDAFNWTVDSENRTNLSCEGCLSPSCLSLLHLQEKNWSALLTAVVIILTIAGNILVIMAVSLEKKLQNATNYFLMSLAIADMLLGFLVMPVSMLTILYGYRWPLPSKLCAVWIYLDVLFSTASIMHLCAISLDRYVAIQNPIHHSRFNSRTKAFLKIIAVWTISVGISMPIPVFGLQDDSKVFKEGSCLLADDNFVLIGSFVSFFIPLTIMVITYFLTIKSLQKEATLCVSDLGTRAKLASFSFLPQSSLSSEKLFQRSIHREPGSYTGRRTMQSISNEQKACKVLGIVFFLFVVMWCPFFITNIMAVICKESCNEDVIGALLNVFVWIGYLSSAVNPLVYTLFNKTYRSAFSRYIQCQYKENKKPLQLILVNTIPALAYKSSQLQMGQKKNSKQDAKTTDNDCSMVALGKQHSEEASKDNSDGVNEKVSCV

| Compound | IC50 |
| --- | --- |
| CN1CCC(=C2c3ccc(Cl)cc3CCc3cccnc32)CC1 [Example 13, 8-chloro-11-(1-methylpiperidin-4-ylidene)-6,11-dihydro-5H-benzo[5,6]cyclohepta[1,2-b]pyridine] | 119 nM |
| N[C@@H](Cc1ccc(OCCCCN2CCC(=C3c4ccc(Cl)cc4CCc4cccnc43)CC2)cc1)C(=O)O [Example 14, (S)-2-amino-3-(4-(4-(4-(8-chloro-5,6-dihydro-11H-benzo[5,6]cyclohepta[1,2-b]pyridin-11-ylidene)piperidin-1-yl)butoxy)phenyl)propionic acid trihydrochloride] | 188 nM |
| O=C1CCc2ccc(OCCCCN3CCC(=C4c5ccc(Cl)cc5CCc5cccnc54)CC3)cc2N1 [Example 18, 7-(4-(4-(8-chloro-5,6-dihydro-11H-benzo[5,6]cyclohepta[1,2-b]pyridin-11-ylidene)piperidin-1-yl)butoxy)-3,4-dihydroquinolin-2(1H)-one] | 1.3 nM |
| N[C@@H](Cc1ccc(OCCCCN2CCC(=C3c4ccc(Cl)cc4CCc4cccnc43)CC2)c(Cl)c1)C(=O)O [Example 20, (S)-2-amino-3-(3-chloro-4-(4-(4-(8-chloro-5,6-dihydro-11H-benzo[5,6]cyclohepta[1,2-b]pyridin-11-ylidene)piperidin-1-yl)butoxy)phenyl)propionic acid trihydrochloride] | 2.08 nM |
| N[C@@H](Cc1ccc(OCCCN2CCC(=C3c4ccc(Cl)cc4CCc4cccnc43)CC2)c(Cl)c1)C(=O)O [Example 21, (S)-2-amino-3-(3-chloro-4-(3-(4-(8-chloro-5,6-dihydro-11H-benzo[5,6]cyclohepta[1,2-b]pyridin-11-ylidene)piperidin-1-yl)propoxy)phenyl)propionic acid trihydrochloride] | 2.1 nM |
| O=C1C2C(C(=O)N1CCCCN1CCC(=C3c4ccc(Cl)cc4CCc4cccnc43)CC1)[C@H]1CC[C@@H]2C1 (stereo partly drawn) [Example 30, (4R,7S)-2-(4-(4-(8-chloro-5,6-dihydro-11H-benzo[5,6]cyclohepta[1,2-b]pyridin-11-ylidene)piperidin-1-yl)butyl)hexahydro-1H-4,7-methanoisoindole-1,3(2H)-dione] | 0.15 nM |

Next, values leading:

| IC50 | Compound |
| --- | --- |
| 47 nM | O=c1[nH]c2ccccc2c(=O)n1CCN1CCC(=C2c3ccc(Cl)cc3CCc3cccnc32)CC1 [Example 12, 3-(2-(4-(8-chloro-5,6-dihydro-11H-benzo[5,6]cyclohepta[1,2-b]pyridin-11-ylidene)piperidin-1-yl)ethyl)quinazoline-2,4(1H,3H)-dione] |
| 30 nM | Cc1nc2sccn2c1C(O)CN1CCC(=C2c3ccc(Cl)cc3CCc3cccnc32)CC1 (stereo not shown) [Example 15, 2-(4-(8-chloro-5,6-dihydro-11H-benzo[5,6]cyclohepta[1,2-b]pyridin-11-ylidene)piperidin-1-yl)-1-(6-methylimidazo[2,1-b]thiazol-5-yl)ethan-1-ol] |
| 0.19 nM | O=C1C2CCCCC2C(=O)N1CCCCN1CCC(=C2c3ccc(Cl)cc3CCc3cccnc32)CC1 (stereo not shown) [Example 19, 2-(4-(4-(8-chloro-5,6-dihydro-11H-benzo[5,6]cyclohepta[1,2-b]pyridin-11-ylidene)piperidin-1-yl)butyl)hexahydro-1H-isoindole-1,3(2H)-dione] |
| 1.3 nM | N[C@@H](Cc1ccc(OCCCN2CCC(=C3c4ccc(Cl)cc4CCc4cccnc43)CC2)cc1)C(=O)O [Example 22, (S)-2-amino-3-(4-(3-(4-(8-chloro-5,6-dihydro-11H-benzo[5,6]cyclohepta[1,2-b]pyridin-11-ylidene)piperidin-1-yl)propoxy)phenyl)propionic acid trihydrochloride] |
| 8.1 nM | O=C(CN1CCC(=C2c3ccc(Cl)cc3CCc3cccnc32)CC1)c1ccc(Br)cc1 [Example 24, 1-(4-bromophenyl)-2-(4-(8-chloro-5,6-dihydro-11H-benzo[5,6]cyclohepta[1,2-b]pyridin-11-ylidene)piperidin-1-yl)ethan-1-one] |
| 1.19 nM | OC(CN1CCC(=C2c3ccc(Cl)cc3CCc3cccnc32)CC1)c1ccc(Br)cc1 (stereo not shown) [Example 27, 1-(4-bromophenyl)-2-(4-(8-chloro-5,6-dihydro-11H-benzo[5,6]cyclohepta [1,2-b]pyridin-11-ylidene)piperidin-1-yl)ethan-1-ol] |
| 30.8 nM | COc1cccc(CCc2ccccc2OCC(O)CN2CCC(=C3c4ccc(Cl)cc4CCc4cccnc43)CC2)c1 (stereo not shown) [Example 60, 1-(4-(8-chloro-5,6-dihydro-11H-benzo[5,6]cyclohepta[1,2-b]pyridin-11-ylidene)piperidin-1-yl)-3-(2-(3-methoxyphenethyl)phenoxy)propan-2-ol] |
